# Test results: EP4755885A1 (Shanghai Hansoh Biomedical Co., Ltd., priority 2023, dated 2025)
# Like-named read-outs stand apart in the source and are kept apart here.
# Columns and labels:
# [1] = Pharmacokinetic evaluation in beagles, oral administration; format: in vivo; conditions: dog, po, p.o. 2 mg/kg, plasma; for Cmax: read-out: Cmax; for MRT inf: read-out: MRT 0-∞; for Tmax: read-out: tmax
# How it was run: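 Male beagles (3) fasted overnight received 2 mg/kg orally as a 0.4 mg/mL solution in 10% PEG400/10% PG/80% glycine buffer, pH 9.0-9.5. Plasma (EDTA-K2) sampled predose and 0.25-24 h; acetonitrile precipitation, then LC/MS/MS quantification.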
# human GLP-1 receptor = target: T1, human GLP-1 receptor (Homo sapiens, UniProt P43220); test: cAMP production in cell line stably transformed with human GLP1 receptor, 2 h co-incubation (HTRF); format: cell-based; conditions: CHO-K1/GLP-1R/CRE-luc cells, stimulation for 2 h
# T1 construct: expressed in transfected cells
# T1 sequence (P43220 24-463): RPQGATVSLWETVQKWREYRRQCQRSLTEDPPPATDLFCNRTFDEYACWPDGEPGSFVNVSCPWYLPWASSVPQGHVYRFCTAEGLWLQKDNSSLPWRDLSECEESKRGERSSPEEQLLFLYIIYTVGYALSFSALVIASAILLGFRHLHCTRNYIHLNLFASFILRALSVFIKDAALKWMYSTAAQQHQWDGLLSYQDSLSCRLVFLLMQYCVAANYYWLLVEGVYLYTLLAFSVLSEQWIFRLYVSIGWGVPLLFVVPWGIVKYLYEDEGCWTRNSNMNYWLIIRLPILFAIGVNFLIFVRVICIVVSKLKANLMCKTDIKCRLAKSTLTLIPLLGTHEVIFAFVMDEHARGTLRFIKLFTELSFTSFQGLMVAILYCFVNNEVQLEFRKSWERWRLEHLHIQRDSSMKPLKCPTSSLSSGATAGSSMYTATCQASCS
# How it was run: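 CHO-K1/GLP-1R/CRE-luc cells (human GLP-1R) incubated 2 h at 37 °C with compound (12-point 3-fold series) and 0.5 mM IBMX in DMEM/F12 with 0.1% casein. cAMP measured by HTRF (665/620 nm ratio); EC50 from four-parameter fit.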
# [2] = Long-term administration, body weight and food intake of mice fed with CDAHFD high-fat diet; format: in vivo, GLP-1R humanized C57BL/6 mice
# Excerpt: The purpose of this assay was to evaluate the effects of long-term administration of the compound on the body weight and food intake of GLP-1R humanized C57BL/6 mice fed with CDAHFD high-fat diet.
# C57BL/6_hGLP-1R, male, 5-8 weeks, purchased from Biocytogen Pharmaceuticals (Beijing) Co., Ltd. • Choline-deficient, L-amino acid-defined, high-fat diet (CDAHFD), purchased from Shanghai Bopai Biotechnology Co., Ltd. (Research diet-A06071302) • Ultra-clean bench (CJ-2F, Suzhou Fengshi Experimental Animal Equipment Co., Ltd. • Electronic balance (BSA2202S-CW, Sartorius)
# • 3.1 On the day of starting feeding the high-fat diet, the C57BL/6 mice were randomly grouped according to body weight. The first group was Blank, with 7 mice, and was fed with normal control diet. The remaining animals were the modeling group, and were fed with the high-fat diet until the end of the experiment. • 3.2 In week 4 of CDAHFD feeding, the animals in the modeling group were randomly grouped according to body weight, with 7 mice in each group. The first group was Vehicle group (Vehicle: 10%PEG400/10%PG/80% glycine buffer (100 mM glycine, 26 mM NaOH, pH 9) buffer), and was administered solvent; the remaining group was administration group. Administration regime: the corresponding compound was orally administered for a period of 21 days, once each day, the administration dose being 0.3 mg/kg, 1 mg/kg, 3 mg/kg, and 10 mg/kg, and the administration volume being 10 mL/kg. The Blank group continued to be fed with the normal diet, and was orally administered solvent once each day. • 3.3 The day of administration was defined as Day 0. • 3.4 The animals were weighed at each administration and the data were recorded. Oral administration was performed according to body weight, and the administration volume was 10 mL/kg. • 3.5 Starting from day 0 of the experiment, the food intake of the mice in each group was measured every three days. Specifically, after each weighing and administration, the diet was renewed, and the added amount and remaining amount were recorded. • 3.6 On Day 21, the end day, all mice were euthanized sequentially according to grouping order. Plasma and tissues (liver, kidney, ileum, pancreas, and brain) were taken for PK determination, and serum was taken for blood biochemistry determination (ALT, AST, TG, TC, and LDL-C).
# The body weight and body weight change rate of the mice after administration were summarized and statistically analyzed. The body weight change rate was calculated according to (BWt - BW0) / BW0 × 100%, where BWt represents mouse body weight on day t of the experiment, and BW0 represents mouse body weight on day 0 of the experiment.
# [3] = 3 mg/kg orally once each day for 21 days
SMILES,AUC(0-inf) [1] [ng·h/mL],AUC(0-t) at 24 h [1] [ng·h/mL],half-life [1] [h],Cmax [1] [ng/mL],MRT inf [1] [h],Tmax [1] [h],EC50 (human GLP-1 receptor) [nM],"Body weight change (%)- [2, 3] [%]","AUC(0-inf) ([1]; male, beagle) [ng·h/mL]","half-life ([1]; male, beagle) [h]","AUC(0-t) ([1]; male, beagle, read-out: AUC 0-t) [ng·h/mL]","Cmax ([1]; male, beagle) [ng/mL]","MRT inf ([1]; male, beagle) [h]","Tmax ([1]; male, beagle) [h]",EC50 (human GLP-1 receptor; read-out: EC50) [nM],Body weight change (%)- ([2]; 0.3mg/kg orally once each day for 21 days) [%],Body weight change (%)- ([2]; 1 mg/kg orally once each day for 21 days) [%]
Cc1cc(-n2nc3c(c2-n2ccn(-c4ccc5c(cnn5C5CC5)c4F)c2=O)[C@H](C)N(C(=O)c2cc4cc([C@H]5CCOC(C)(C)C5)ccc4n2[C@@]2(c4noc(=O)[nH]4)C[C@@H]2COC2CC2)CC3)cc(C)c1F [Example 67],11800,11500,4.2,2110,5.7,1.5,0.024,-20.34,–,–,–,–,–,–,–,–,–
C#C[C@H]1C[C@]1(c1noc(=O)[nH]1)n1c(C(=O)N2CCc3nn(-c4cc(C)c(F)c(C)c4)c(-n4ccn(-c5ccc6c(cnn6C6CC6)c5F)c4=O)c3[C@@H]2C)cc2cc([C@H]3CCOC(C)(C)C3)ccc21 [Example 143],–,–,–,–,–,–,–,-19.43,17800,3.3,13800,2040,4.8,2.7,0.013,–,–
"CC#C[C@H]1C[C@]1(c1noc(=O)[nH]1)n1c(C(=O)N2CCc3nn(-c4cc(C)c(F)c(C)c4)c(-n4ccn(-c5ccc6c(cnn6C6CC6)c5F)c4=O)c3[C@@H]2C)cc2cc([C@H]3CCOC(C)(C)C3)ccc21 [Example 144, 3-((1S,2R)-1-(2-((S)-3-(3-(1-cyclopropyl-4-fluoro-1H-indazole-5-yl)-2-carbonyl-2,3-dihydro-1H-imidazole-1-yl)-2-(4-fluoro-3,5-dimethylphenyl)-4-methyl-4,5,6,7-tetrahydro-2H-pyrazolo[4,3-c]pyridin-5-carbonyl)-5-((S)-2,2-dimethyltetrahydro-2H-pyrano-4-yl)-1H-indole-1-yl)-2-(propyl-1-alkynyl-1-yl)cyclopropyl)-1,2,4-oxadiazol-5(4H)-one]",16600,15900,5.8,2470,6.5,1.7,–,–,–,–,–,–,–,–,0.05,-10.40,-14.70
"[2H]C([2H])([2H])n1nc2c3c(c(-n4ccn(-c5c6c(nn5-c5cc(C)c(F)c(C)c5)CCN(C(=O)c5cc7cc([C@H]8CCOC(C)(C)C8)ccc7n5[C@@]5(c7noc(=O)[nH]7)C[C@@H]5C)[C@H]6C)c4=O)ccc31)OCCC2 [Example 282, 3-((1S,2S)-1-(5-((S)-2,2-dimethyltetrahydro-2H-pyran-4-yl)-2-((S)-2-(4-fluoro-3,5-dimethylphenyl)-4-methyl-3-(3-(2-(methyl-d3)-2,7,8,9-tetrahydrooxaheptano[4,3,2-cd]indazol-5-yl)-2-carbonyl-2,3-dihydro-1H-imidazol-1-yl)-4,5,6,7-tetrahydro-2H-pyrazolo[4,3-c]pyridine-5-carbonyl)-1H-indol-1-yl)-2-methylcyclopropyl)-1,2,4-oxadiazol-5(4H)-one]",10800,9130,8.5,858,12.1,2,–,–,–,–,–,–,–,–,0.074,–,–
